Results on twelve compounds are retold here after patent US20260098061A1, “EPHA2-BINDING PENDING PEPTIDE AND COMPOSITION COMPRISING SAME” (PeptiDream Inc., priority 2022, published 2026).

Numbered stars: 1 amine (or outer) side, 2 acyl side, 3 side chain; on linkers, the order of the positions; unused ones are H or OH. Bridge positions count the residues as written; N and C are the ends. Square brackets hold non-standard residues; d marks the D form. Side chains are listed from the residue outwards. Peptide text beside a SMILES is read from it. * marks the point of attachment. NH(1-deoxy-D-glucityl) = OC[C@@H](O)[C@@H](O)[C@H](O)[C@@H](O)CN*; Trp(1-Me,7-Cl) = Cn1cc(C[C@H](N)C(=O)O)c2cccc(Cl)c21; Ala(2-NH2-4-pyridyl) = Nc1cc(C[C@H](N)C(=O)O)ccn1; dPhe(3-CONH2) = NC(=O)c1cccc(C[C@@H](N)C(=O)O)c1; X6 = Cn1cc(C[C@H](N[*:1])C(=O)[*:2])c2cccnc21; Piperazinyl(4-CH2COOH) = O=C(O)CN1CCN(*)CC1; Trp(1-Me) = Cn1cc(C[C@H](N)C(=O)O)c2ccccc21; NMe3Pal = CN[C@@H](Cc1cccnc1)C(=O)O; NMeF = CN[C@@H](Cc1ccccc1)C(=O)O; hCit = NC(=O)NCCCC[C@H](N)C(=O)O; Gly(cBu) = N[C@H](C(=O)O)C1CCC1; NMeE = CN[C@@H](CCC(=O)O)C(=O)O; Aad = N[C@@H](CCCC(=O)O)C(=O)O; NMeN = CN[C@@H](CC(N)=O)C(=O)O; Chg = N[C@H](C(=O)O)C1CCCCC1; Pen = CC(C)(S)[C@H](N)C(=O)O; CO = O=C([*:1])[*:2]; βAla = NCCC(=O)O

The experiment concerns the target T1, Recombinant Human EphA2 Fc Protein (Homo sapiens, UniProt P29317).
T1 construct: purchased Elabscience
Briefly: SPR interaction analysis (Biacore T200), kinetics of peptides against EphA2. It is filed as binding. The settings on record: Recombinant Human EphA2 Fc Protein captured by Human Antibody Capture kit; single-cycle kinetics; 25° C.; HBS-P+ buffer with 1% DMSO. In outline: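 KD derived from ka and kd, fitted on baseline-subtracted sensorgrams from single-cycle kinetics of five peptide dilutions. Running buffer: HBS-P+ (pH 7.4) plus 1% DMSO, 25° C, Biacore T200. Recombinant human EphA2-Fc held on an antibody capture surface.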
In general, Kd refers to a measure of binding affinity in units of concentration. Take `CN1C(=O)[C@H](CCCC(N)=O)NC(=O)[C@H](C2CCC2)NC(=O)[C@H](CC(N)=O)NC(=O)[C@H](Cc2cccnc2)N(C)C(=O)[C@@H](Cc2cccc(C(N)=O)c2)NC(=O)CSC(C)(C)[C@@H](C(N)=O)NC(=O)[C@H](Cc2cn(C)c3ccccc23)NC(=O)[C@H](CCCCNC(=O)N2CCN(CC(=O)O)CC2)NC(=O)[C@H](Cc2cn(C)c3c(Cl)cccc23)NC(=O)[C@@H]1CCC(=O)O` [PDC_EphA2-00026609, df3CON-Me3Py-N-Cbg-Hgn-MeE-W1Me7Cl-KCOpipzaa-W1Me-CdMe-NH2] ({CH2CO}-[dPhe(3-CONH2)][NMe3Pal]N[Gly(cBu)][Aad](NH2)[NMeE][Trp(1-Me,7-Cl)]K([CO-Piperazinyl(4-CH2COOH)])[Trp(1-Me)][Pen]-NH2; thioether N-10): the Kd lay in the range of 1 to 10 nM.

Regarding `CC(=O)NCCCC[C@H](NC(=O)[C@@H]1CSCC(=O)N[C@H](C)C(=O)N(C)[C@@H](Cc2cccnc2)C(=O)N[C@@H](CC(N)=O)C(=O)N[C@@H](CC(C)C)C(=O)N[C@@H](CCCCNC(=O)N2CCN(CC(=O)O)CC2)C(=O)N(C)[C@@H](Cc2ccccc2)C(=O)N[C@@H](Cc2cn(C)c3ccccc23)C(=O)N[C@@H](CCCCNC(=O)N2CCN(CC(=O)O)CC2)C(=O)N[C@@H](Cc2cn(C)c3ccccc23)C(=O)N[C@@H]([C@@H](C)O)C(=O)N[C@@H](CCC(=O)O)C(=O)N1)C(N)=O` [PDC_EphA2-00008089, da-Me3Py-N-L-KCOpipzaa-MeF-W1Me-KCOpipzaa-W1Me-T-E-C-KAc-NH2] ({CH2CO}-[dA][NMe3Pal]NLK([CO-Piperazinyl(4-CH2COOH)])[NMeF][Trp(1-Me)]K([CO-Piperazinyl(4-CH2COOH)])[Trp(1-Me)]TECK(Ac)-NH2; thioether N-12), the equilibrium dissociation constant (Kd) is below 1 nM.

Consider `C[C@H]1NC(=O)CSC[C@@H](C(N)=O)NC(=O)[C@H](CCCC(N)=O)NC(=O)[C@H]([C@@H](C)O)NC(=O)[C@H](Cc2cn(C)c3ccccc23)NC(=O)[C@H](CCCCNC(=O)N2CCN(CC(=O)O)CC2)NC(=O)[C@H](Cc2cn(C)c3ncccc23)NC(=O)[C@H](Cc2ccccc2)N(C)C(=O)[C@H](CCCC(N)=O)NC(=O)[C@H](C2CCC2)NC(=O)[C@H](CC(N)=O)NC(=O)[C@H](Cc2cccnc2)N(C)C1=O` [PDC_EphA2-00010002, da-Me3Py-N-Cbg-Hgn-MeF-W1Me7N-KCOpipzaa-W1Me-T-Hgn-C-NH2] ({CH2CO}-[dA][NMe3Pal]N[Gly(cBu)][Aad](NH2)[NMeF][X6]K([CO-Piperazinyl(4-CH2COOH)])[Trp(1-Me)]T[Aad](NH2)C-NH2; thioether N-12), for which the Kd was below 1 nM.

For the compound `CC(C)C[C@@H]1NC(=O)[C@H](CC(N)=O)NC(=O)[C@H](Cc2cccnc2)N(C)C(=O)[C@@H](Cc2cccc(C(N)=O)c2)NC(=O)CSC[C@@H](C(N)=O)NC(=O)[C@H](Cc2cn(C)c3ccccc23)NC(=O)[C@H](CCCCNC(N)=O)NC(=O)[C@H](Cc2cn(C)c3c(Cl)cccc23)NC(=O)[C@H](Cc2ccccc2)N(C)C(=O)[C@H](CO)NC1=O` [PDC_EphA2-00026600, df3CON-Me3Py-N-L-S-MeF-W1Me7Cl-Hcit-W1Me-C-NH2] ({CH2CO}-[dPhe(3-CONH2)][NMe3Pal]NLS[NMeF][Trp(1-Me,7-Cl)][hCit][Trp(1-Me)]C-NH2; thioether N-10), the Kd fell in the range of 1 to 10 nM.

Take `C[C@@H](O)[C@@H]1NC(=O)[C@H](Cc2cn(C)c3ccccc23)NC(=O)[C@H](CCCCNC(=O)N2CCN(CC(=O)O)CC2)NC(=O)[C@H](Cc2cn(C)c3c(Cl)cccc23)NC(=O)[C@H](CC(N)=O)N(C)C(=O)[C@H](CCCC(N)=O)NC(=O)[C@H](C2CCC2)NC(=O)[C@H](CC(N)=O)NC(=O)[C@H](Cc2ccccc2)N(C)C(=O)[C@@H](Cc2cccc(C(N)=O)c2)NC(=O)CSC[C@@H](C(N)=O)NC(=O)[C@H](CCCC(N)=O)NC1=O` [PDC_EphA2-00019425, df3CON-MeF-N-Cbg-Hgn-MeN-W1Me7Cl-KCOpipzaa-W1Me-T-Hgn-C-NH2] ({CH2CO}-[dPhe(3-CONH2)][NMeF]N[Gly(cBu)][Aad](NH2)[NMeN][Trp(1-Me,7-Cl)]K([CO-Piperazinyl(4-CH2COOH)])[Trp(1-Me)]T[Aad](NH2)C-NH2; thioether N-12): the equilibrium dissociation constant (Kd) is below 1 nM.

As to `C[C@@H](O)[C@@H]1NC(=O)[C@H](Cc2cn(C)c3ccccc23)NC(=O)[C@H](CCCCNC(N)=O)NC(=O)[C@H](Cc2cn(C)c3c(Cl)cccc23)NC(=O)[C@H](CC(N)=O)N(C)C(=O)[C@H](CCCC(N)=O)NC(=O)[C@H](C2CCC2)NC(=O)[C@H](CC(N)=O)NC(=O)[C@H](Cc2cccnc2)N(C)C(=O)[C@@H](Cc2cccc(C(N)=O)c2)NC(=O)CSC[C@@H](C(N)=O)NC(=O)[C@H](CCCNC(=N)N)NC1=O` [PDC_EphA2-00019428, df3CON-Me3Py-N-Cbg-Hgn-MeN-W1Me7Cl-Hcit-W1Me-T-R-C-NH2] ({CH2CO}-[dPhe(3-CONH2)][NMe3Pal]N[Gly(cBu)][Aad](NH2)[NMeN][Trp(1-Me,7-Cl)][hCit][Trp(1-Me)]TRC-NH2; thioether N-12), the Kd is below 1 nM.

For `CC(C)[C@@H]1NC(=O)[C@H](Cc2cn(C)c3ccccc23)NC(=O)[C@H](CC(N)=O)N(C)C(=O)[C@H](CCCC(N)=O)NC(=O)[C@H](C2CCC2)NC(=O)[C@H](CC(N)=O)NC(=O)[C@H](Cc2ccccc2)N(C)C(=O)[C@@H](C)NC(=O)CSC[C@@H](C(N)=O)NC(=O)[C@H](CCCC(N)=O)NC(=O)[C@H]([C@@H](C)O)NC(=O)[C@H](Cc2cn(C)c3ccccc23)NC1=O` [PDC_EphA2-00013693, da-MeF-N-Cbg-Hgn-MeN-W1Me-V-W1Me-T-Hgn-C-NH2] ({CH2CO}-[dA][NMeF]N[Gly(cBu)][Aad](NH2)[NMeN][Trp(1-Me)]V[Trp(1-Me)]T[Aad](NH2)C-NH2; thioether N-12), the Kd is below 1 nM.

Regarding `C[C@H]1NC(=O)CSC[C@@H](C(N)=O)NC(=O)[C@H](CCCC(N)=O)NC(=O)[C@H]([C@@H](C)O)NC(=O)[C@H](Cc2cn(C)c3ccccc23)NC(=O)[C@H](CCC(=O)NC[C@H](O)[C@@H](O)[C@H](O)[C@H](O)CO)NC(=O)[C@H](Cc2cn(C)c3ccccc23)NC(=O)[C@H](Cc2cccnc2)N(C)C(=O)[C@H](CCCC(N)=O)NC(=O)[C@H](C2CCC2)NC(=O)[C@H](CC(N)=O)NC(=O)[C@H](Cc2cccnc2)N(C)C1=O` [PDC_EphA2-00013705, da-Me3Py-N-Cbg-Hgn-Me3Py-W1Me-Qglucamine-W1Me-T-Hgn-C-NH2] ({CH2CO}-[dA][NMe3Pal]N[Gly(cBu)][Aad](NH2)[NMe3Pal][Trp(1-Me)]E(NH(1-deoxy-D-glucityl))[Trp(1-Me)]T[Aad](NH2)C-NH2; thioether N-12), the Kd was below 1 nM.

For the compound `CC(C)C[C@@H]1NC(=O)[C@H](CC(N)=O)NC(=O)[C@H](Cc2cccnc2)N(C)C(=O)[C@@H](C)NC(=O)CSC[C@@H](C(N)=O)NC(=O)[C@H](CCCC(N)=O)NC(=O)[C@H]([C@@H](C)O)NC(=O)[C@H](Cc2cn(C)c3ccccc23)NC(=O)[C@H](CCCCNC(=O)N2CCN(CC(=O)O)CC2)NC(=O)[C@H](Cc2cn(C)c3ccccc23)NC(=O)[C@H](CCC(=O)O)N(C)C(=O)[C@H](CCCC(=O)O)NC1=O` [PDC_EphA2-00010006, da-Me3Py-N-L-Hgl-MeE-W1Me-KCOpipzaa-W1Me-T-Hgn-C-NH2] ({CH2CO}-[dA][NMe3Pal]NL[Aad][NMeE][Trp(1-Me)]K([CO-Piperazinyl(4-CH2COOH)])[Trp(1-Me)]T[Aad](NH2)C-NH2; thioether N-12), the Kd is below 1 nM.

Take `CNC(=O)C[C@@H]1NC(=O)[C@H]([C@@H](C)O)NC(=O)[C@H](Cc2cn(C)c3ccccc23)NC(=O)[C@H](CCCCNC(=O)N2CCN(CC(=O)O)CC2)NC(=O)[C@H](Cc2cn(C)c3ccccc23)NC(=O)[C@H](Cc2ccccc2)N(C)C(=O)[C@H](CCCC(N)=O)NC(=O)[C@H](C2CCCCC2)NC(=O)[C@H](CC(N)=O)NC(=O)[C@H](Cc2cccnc2)N(C)C(=O)[C@@H](C)NC(=O)CSC[C@@H](C(N)=O)NC1=O` [PDC_EphA2-00018539, da-Me3Py-N-Chg-Hgn-MeF-W1Me-KCOpipzaa-W1Me-T-Nmm-C-NH2] ({CH2CO}-[dA][NMe3Pal]N[Chg][Aad](NH2)[NMeF][Trp(1-Me)]K([CO-Piperazinyl(4-CH2COOH)])[Trp(1-Me)]TD(NHMe)C-NH2; thioether N-12): the Kd is below 1 nM.

As to `CC(=O)NCCCC[C@@H](NC(=O)CCNC(=O)[C@@H]1CSCC(=O)N[C@H](C)C(=O)N(C)[C@@H](Cc2cccnc2)C(=O)N[C@@H](CC(N)=O)C(=O)N[C@@H](CC(C)C)C(=O)N[C@@H](CCCC(=O)O)C(=O)N(C)[C@@H](Cc2ccccc2)C(=O)N[C@@H](Cc2cn(C)c3ccccc23)C(=O)N[C@@H](CCCCNC(=O)N2CCN(CC(=O)O)CC2)C(=O)N[C@@H](Cc2cn(C)c3ccccc23)C(=O)N[C@@H]([C@@H](C)O)C(=O)N[C@@H](CCCC(N)=O)C(=O)N1)C(N)=O` [PDC_EphA2-00008091, da-Me3Py-N-L-Hgl-MeF-W1Me-KCOpipzaa-W1Me-T-Hgn-C-bA-dkAc-NH2] ({CH2CO}-[dA][NMe3Pal]NL[Aad][NMeF][Trp(1-Me)]K([CO-Piperazinyl(4-CH2COOH)])[Trp(1-Me)]T[Aad](NH2)C[βAla][dK](Ac)-NH2; thioether N-12), the dissociation constant Kd is below 1 nM.

As for `CC(C)C[C@@H]1NC(=O)[C@H](Cc2ccnc(N)c2)NC(=O)[C@H](Cc2ccccc2)NC(=O)CSC[C@@H](C(N)=O)NC(=O)[C@H](Cc2cn(C)c3ccccc23)NC(=O)[C@H](Cc2ccccc2)N(C)C(=O)[C@H](Cc2cn(C)c3ccccc23)NC(=O)[C@H](CCCCNC(N)=O)NC1=O` [PDC_EphA2-00020708, F-4Py2NH2-L-Hcit-W1Me-MeF-W1Me-C-NH2] ({CH2CO}-F[Ala(2-NH2-4-pyridyl)]L[hCit][Trp(1-Me)][NMeF][Trp(1-Me)]C-NH2; thioether N-8), the dissociation constant Kd fell in the range of 100 to 400 nM.
